Experiment: Kinetic study of reaction with glutathione (GSH), half-life by 1H NMR (disappearance of vinyl group)
Settings: second order kinetics, 1.0 equiv. glutathione, phosphate buffer pH 7.3 in D2O:(CD3)2SO = 2:1, 1H NMR
Procedure: The reactivity of the vinyl sulfonimidamides was next examined under biologically relevant conditions using glutathione (GSH) as the nucleophile at pH 7.3 (Scheme 4).[32] The half-life (t1/2) was determined using ^1H NMR analysis, with the disappearance of the vinyl group monitored as a function of time (full experimental details are provided in the ESI ^†). […] Due to the rapid reaction rates, the half-life for the majority of substrates was calculated using second-order kinetics. However, the half-life of unfunctionalized α-Me and β-Me-substituted sulfonimidamide derivatives were determined with pseudo-first-order kinetics using six equivalents of glutathione.
Reaction was conducted in a mixture of buffer solution and deuterated DMSO
(Buffer:(CD3)2SO = 2:1). A relatively high (CD3)2SO ratio was employed due to the insolubility
of less polar substrates in the buffer solution.
Buffer solution containing 0.0648 mol/L disodium hydrogen phosphate and 0.0153 mol/L
potassium dihydrogen phosphate at p H 7.3[10] was prepared using d euterium oxide and
stored at 20 °C. […] The stock solution […]
For the majority of substrates, the half-life was determined using second order kinetics with […]
was measured and plotted as the inverse against time. The half-life was calculated through […]
starting material was plotted as natural log and the half-life was calculated through the best-

In the case of `C=CS(=O)(=NS(C)(=O)=O)N1CCOCC1` (stereo not shown) [Compound 3e], the “Half-life (t1/2) of reaction with GSH” value is reported as “too fast to be determined”.

— publication PMC12163725, “Synthesis and functionalization of vinyl sulfonimidamides and their potential as electrophilic warheads” (Chemical Science, 2025)
